The text below walks through data of US8946431B2, “2-(substituted ethynyl)quinoline derivatives as mGLUr5 antagonists” (Korea Institute of Science and Technology, priority 2013, dated 2015).

Like-named read-outs stand apart in the source and are kept apart here. Marks after values point to notes of the source that are not given here. Some results are limits rather than exact numbers.

In series [1] the target is hERG (Homo sapiens, UniProt Q12809). Description: Inhibitory concentration (IC50) on hERG. In general terms: The hERG channel carries a current that helps repolarise heart muscle cells.
The target of series [2] is T1, mGluR5 (Homo sapiens, UniProt P41594).
T1 construct: host or cells: HEK293 (human embryonic kidney) cells stably expressing m-GluR5
Description: Assay for m-GluR5 activity using FDSS6000 (calcium mobilization by L-glutamate in mGluR5/HEK293 cells). The format is cell-based. The note with it: HEK293, L-glutamate 10 uM, HEK cells expressing m-GluR5, read-out: % Inhibition rate (mGluR5); for inhibition at 1 µM: 1 μM compound; for inhibition at 10 µM: 10 μM compound. As to the method: Inhibitory activity (%) of the compound represented by Formula 1 on calcium mobilization developed at a high concentration of glutamate in mGluR5/HEK293 cells was measured by using a high throughput FDSS6000.
After HEK cells stably expressing m-GluR5 (Human embryonic kidney cell line; m-GluR5: Yonsei University) were prepared at a density of 4×10^4/Ml per well, aliquots of 100 μl from the cell suspension were distributed evenly into a 96-well plate and incubated for 18 hr at 37° C., 5% CO2. The well plate was washed with a HBSS buffer to remove the culture medium, and reacted with a HBSS buffer containing a Ca^2+ fluorescent dye (FLIPR Calcium 5 assay kit: Molecular Devices) for 30 min at 37° C., 5% CO2, thereby labeling with the fluorescent dye. Separately from the 96-well plate including the cells, another 96-well plate including L-glutamate (final concentration: 10 uM) capable of activating m-GluR5 and a blacking agent was prepared. Since most of cell-based HTS devices are equipped with a liquid application system for injection of a drug, but have no liquid sucking system, the blocking agent to be tested and L-glutamate were respectively provided at a 6-fold higher concentration in a HBSS buffer at the amount of 25 μl, diluted by six-times at the final cell plate volume of 150 μl, and then used in this assay. Briefly, the FDSS6000 assay was carried out by recording a reference level of 20 sec, pre-treating with a blocking agent for 75 sec, and then measuring the change in intracellular calcium level depending on the administration of L-glutamate. After the area of a 480/520 ratio value in a control without treatment of a test drug was set to 100%, an inhibitory effect of the test drug was calculated as a percentage (%) thereon.
For accurate calcium imaging, the light source of 4 xenon lamps in FDSS6000 were radiated to selectively expose the cells to the excitation wavelength (480 nm) by a computer-controlled filter wheel. Data were obtained at intervals of 1.23 sec. The emitter fluorescence light inflowed through a 520 nm long-pass filter was obtained as an average 480/520 ratio value for each well in the 96-wells by using a CCD camera and a digital fluorescence analyzer in FDSS6000. All image data and analyses were obtained by using a FDSS6000-exclusive program from Hamamatsu Photonics.
In general terms: A change in cytosolic calcium serves as a functional read-out for many receptors and channels.

Series [3] in a line: HLM (human liver microsomal) stability. The format is in vitro ADME. As to conditions: human liver microsomes. (Liver microsomes are a subcellular fraction often used to study metabolism.)
The conditions of series [4]: rat.
For series [5], the target named is T1, mGluR5. The experiment in a line: Inhibitory concentration (IC50) on mGluR5. The series is classed as cell-based.
In series [6] the target is CYP2C9 (Homo sapiens, UniProt P11712). The experiment in a line: CYP inhibitory rate, CYP2C9. The format is in vitro ADME.
Series [7] concerns SNL (spinal nerve ligation) neuropathic pain models. The experiment in a line: In vivo test in SNL (spinal nerve ligation) neuropathic pain models. As to conditions: orally administered, SNL model, compared with gabapentin as control (FIG. 1 C, D). The text has this: The compound prepared in Example 26 was subjected to an in vivo test as follows. […] Here, gabapentin was used as a control.

In series [8] the target is CYP3A4 (Homo sapiens, UniProt P08684). Description: CYP inhibitory rate, CYP3A4. The format is in vitro ADME.
The target of series [9] is CYP2D6 (Homo sapiens, UniProt P10635). Description: CYP inhibitory rate, CYP2D6. The format is in vitro ADME.
Chain of CYP2D6 (P10635 whole entry): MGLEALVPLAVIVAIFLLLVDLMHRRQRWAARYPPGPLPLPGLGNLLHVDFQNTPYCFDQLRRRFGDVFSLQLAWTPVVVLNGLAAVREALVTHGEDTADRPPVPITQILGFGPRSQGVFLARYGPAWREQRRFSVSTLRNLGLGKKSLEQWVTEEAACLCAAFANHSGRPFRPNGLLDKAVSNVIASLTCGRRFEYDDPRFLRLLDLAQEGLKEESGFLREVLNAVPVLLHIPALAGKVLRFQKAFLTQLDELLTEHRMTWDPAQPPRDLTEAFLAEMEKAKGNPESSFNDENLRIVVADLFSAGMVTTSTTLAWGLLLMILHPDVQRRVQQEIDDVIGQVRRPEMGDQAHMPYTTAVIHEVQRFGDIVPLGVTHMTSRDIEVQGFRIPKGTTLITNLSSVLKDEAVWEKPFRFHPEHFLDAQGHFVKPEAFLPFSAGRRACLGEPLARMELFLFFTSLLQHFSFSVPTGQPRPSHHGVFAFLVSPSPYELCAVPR

T1 sequence (P41594 21-1212): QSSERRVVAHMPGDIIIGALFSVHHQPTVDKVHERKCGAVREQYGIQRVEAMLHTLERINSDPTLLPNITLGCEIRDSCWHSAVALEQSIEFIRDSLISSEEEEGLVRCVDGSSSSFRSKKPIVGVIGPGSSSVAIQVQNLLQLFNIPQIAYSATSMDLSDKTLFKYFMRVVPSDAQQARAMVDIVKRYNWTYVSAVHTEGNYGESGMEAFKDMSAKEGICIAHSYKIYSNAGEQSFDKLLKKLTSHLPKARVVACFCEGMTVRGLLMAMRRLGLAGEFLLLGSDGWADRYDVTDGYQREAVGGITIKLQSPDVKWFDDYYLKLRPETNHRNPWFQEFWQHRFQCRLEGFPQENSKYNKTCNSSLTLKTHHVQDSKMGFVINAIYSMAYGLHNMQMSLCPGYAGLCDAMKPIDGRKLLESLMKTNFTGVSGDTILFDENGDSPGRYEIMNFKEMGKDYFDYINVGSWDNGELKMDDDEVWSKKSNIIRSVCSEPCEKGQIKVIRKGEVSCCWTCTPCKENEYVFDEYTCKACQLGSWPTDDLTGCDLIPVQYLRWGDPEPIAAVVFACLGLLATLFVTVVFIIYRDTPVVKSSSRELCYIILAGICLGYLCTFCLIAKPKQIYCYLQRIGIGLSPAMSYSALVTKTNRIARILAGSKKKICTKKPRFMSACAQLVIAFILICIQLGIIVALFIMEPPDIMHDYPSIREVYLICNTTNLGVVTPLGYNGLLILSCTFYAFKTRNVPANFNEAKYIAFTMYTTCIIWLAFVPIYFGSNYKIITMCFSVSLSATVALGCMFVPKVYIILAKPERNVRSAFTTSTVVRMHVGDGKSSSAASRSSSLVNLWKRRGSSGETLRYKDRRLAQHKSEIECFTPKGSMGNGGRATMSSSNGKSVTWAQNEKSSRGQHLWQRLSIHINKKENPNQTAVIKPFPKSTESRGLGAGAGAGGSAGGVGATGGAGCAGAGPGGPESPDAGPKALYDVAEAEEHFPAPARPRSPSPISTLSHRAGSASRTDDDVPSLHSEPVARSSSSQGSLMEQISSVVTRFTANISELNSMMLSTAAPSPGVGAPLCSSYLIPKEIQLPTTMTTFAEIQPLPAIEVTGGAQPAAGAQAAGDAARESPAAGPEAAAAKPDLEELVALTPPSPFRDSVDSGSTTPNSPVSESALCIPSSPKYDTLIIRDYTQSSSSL
Chain of hERG (Q12809 whole entry): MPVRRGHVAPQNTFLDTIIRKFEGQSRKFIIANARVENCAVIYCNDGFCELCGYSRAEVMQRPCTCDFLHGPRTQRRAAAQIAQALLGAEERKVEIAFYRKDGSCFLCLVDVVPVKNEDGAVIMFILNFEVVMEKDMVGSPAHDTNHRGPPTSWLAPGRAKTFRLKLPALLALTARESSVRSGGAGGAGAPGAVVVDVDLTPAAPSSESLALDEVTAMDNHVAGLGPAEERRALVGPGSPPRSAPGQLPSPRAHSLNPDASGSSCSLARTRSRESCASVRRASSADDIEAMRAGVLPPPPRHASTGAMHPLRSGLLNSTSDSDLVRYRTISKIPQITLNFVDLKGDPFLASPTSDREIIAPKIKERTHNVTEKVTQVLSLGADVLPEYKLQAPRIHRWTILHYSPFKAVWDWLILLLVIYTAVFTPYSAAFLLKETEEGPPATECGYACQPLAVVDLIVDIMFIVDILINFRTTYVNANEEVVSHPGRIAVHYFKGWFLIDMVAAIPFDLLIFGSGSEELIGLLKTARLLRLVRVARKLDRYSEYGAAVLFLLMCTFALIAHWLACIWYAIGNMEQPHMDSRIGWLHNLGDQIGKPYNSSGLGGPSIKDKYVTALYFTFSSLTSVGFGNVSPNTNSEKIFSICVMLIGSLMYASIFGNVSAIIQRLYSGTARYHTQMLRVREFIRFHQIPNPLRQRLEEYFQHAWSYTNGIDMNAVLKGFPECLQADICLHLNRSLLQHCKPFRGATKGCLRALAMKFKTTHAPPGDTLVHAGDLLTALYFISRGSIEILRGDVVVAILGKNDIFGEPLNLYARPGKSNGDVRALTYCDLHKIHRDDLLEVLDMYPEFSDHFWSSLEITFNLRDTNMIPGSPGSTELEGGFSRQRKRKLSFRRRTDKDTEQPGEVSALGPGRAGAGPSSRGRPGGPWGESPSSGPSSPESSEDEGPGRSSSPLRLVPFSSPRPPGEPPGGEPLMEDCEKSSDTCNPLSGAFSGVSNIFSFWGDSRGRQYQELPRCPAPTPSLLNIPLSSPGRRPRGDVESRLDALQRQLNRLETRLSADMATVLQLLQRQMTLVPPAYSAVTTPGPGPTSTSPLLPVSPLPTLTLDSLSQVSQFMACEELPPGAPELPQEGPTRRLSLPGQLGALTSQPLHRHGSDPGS
Chain of CYP3A4 (P08684 whole entry): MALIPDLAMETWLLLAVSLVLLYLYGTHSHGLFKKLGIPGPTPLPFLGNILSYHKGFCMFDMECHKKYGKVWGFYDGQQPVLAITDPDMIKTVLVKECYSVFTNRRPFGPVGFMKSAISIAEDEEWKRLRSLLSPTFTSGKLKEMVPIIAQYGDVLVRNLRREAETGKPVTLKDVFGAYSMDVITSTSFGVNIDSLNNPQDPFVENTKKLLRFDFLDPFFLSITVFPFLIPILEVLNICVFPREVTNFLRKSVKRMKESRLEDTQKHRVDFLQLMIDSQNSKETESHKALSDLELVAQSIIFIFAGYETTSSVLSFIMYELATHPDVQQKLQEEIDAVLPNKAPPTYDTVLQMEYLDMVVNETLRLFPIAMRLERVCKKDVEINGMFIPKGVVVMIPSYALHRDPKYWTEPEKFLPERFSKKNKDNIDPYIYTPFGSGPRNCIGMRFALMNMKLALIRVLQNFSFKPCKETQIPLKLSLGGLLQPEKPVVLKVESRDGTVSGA
Chain of CYP2C9 (P11712 whole entry): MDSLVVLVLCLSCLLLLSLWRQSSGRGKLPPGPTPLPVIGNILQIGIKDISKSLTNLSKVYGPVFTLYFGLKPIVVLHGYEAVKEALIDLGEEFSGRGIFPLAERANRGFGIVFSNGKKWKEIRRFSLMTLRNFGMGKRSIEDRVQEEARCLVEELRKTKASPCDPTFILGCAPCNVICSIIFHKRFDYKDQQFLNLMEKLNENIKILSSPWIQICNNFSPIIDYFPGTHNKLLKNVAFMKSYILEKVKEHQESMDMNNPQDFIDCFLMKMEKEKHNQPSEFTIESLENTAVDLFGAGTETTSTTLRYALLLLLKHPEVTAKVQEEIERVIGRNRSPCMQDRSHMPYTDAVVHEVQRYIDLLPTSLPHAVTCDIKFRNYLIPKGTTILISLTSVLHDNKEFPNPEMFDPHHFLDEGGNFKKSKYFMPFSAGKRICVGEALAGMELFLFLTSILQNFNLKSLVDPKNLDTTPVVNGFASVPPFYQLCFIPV

`C(#Cc1ccc2ccccc2n1)c1ccccn1` [Example 26, 2-(Pyridine-2-ylethynyl)quinoline] showed an IC50 in [1] of 20.3 ± 6.11 µM. In series [2], the inhibition at 1 µM was determined as 58.8% and the inhibition at 10 µM is 76.7%. The “HLM % remaining after 30 min” value in series [3] came to 88%. Further, in series [4] (intravenous injection (n=4)), the CL is recorded as 84.93 (±8.98) mL/min/kg, the T1/2 is given as 58.24 (±62.41) min and the Vdss is 1269.02 (±158.55) mL/kg. The compound further yielded a F in [4] (oral administration) of 15.9%. Further, in series [4] (oral administration (n=3)), the Cmax is 0.43 (±0.18) μg/mL and the T1/2 is given as 48.53 (±8.06) min. For the same compound, the Tmax in series [4] (oral administration (n=3), median value (range)) is recorded as 10 (5-30)^a min. The same compound displayed an IC50 in series [5] of 0.94 ± 0.25 µM. In addition, the “CYP (% remaining @ 10 μM) CYP2C9” value in [6] is listed as greater than 99%. For the same compound, in series [7], the “inhibitory effect on cold allodynia” value is “higher inhibitory effect”. In addition, the “CYP (% remaining @ 10 μM) CYP3A4” value in series [8] is on record as 77%. In [9], the “CYP (% remaining @ 10 μM) CYP2D6” value came to 98%.

`N#Cc1cccc(C#Cc2ccc3ccccc3n2)n1` [Example 39, 6-(Quinoline-2-ylethynyl)picolinonitrile] registered an IC50 in series [1] of 22.7 ± 7.04 µM. Moreover, in series [2], the inhibition at 1 µM stood at 33% and the inhibition at 10 µM was 64.8%. In series [3], the “HLM % remaining after 30 min” value was 98%. In series [5], the IC50 is 0.75 ± 0.17 µM. The “CYP (% remaining @ 10 μM) CYP2C9” value in series [6] is on record as 52%. Moreover, the “CYP (% remaining @ 10 μM) CYP3A4” value in [8] worked out at 56%. Moreover, the “CYP (% remaining @ 10 μM) CYP2D6” value in series [9] is 78%.

For orientation: IC50 means the concentration needed to halve the response being measured. The low end stands for greater potency, the high end for weaker potency. As a reminder, the inhibition is the percentage by which the read-out fell short of the control.
